# Tests used:
# Colon tumor = test: CAM tumor implant model, colon tumor; type: in vivo, chick; details: 0.01 mg single dose over 7 days, initial implant 45 ± 5 mg, n = 8
# Protocol: Ten million tumor cells were placed on the surface of each CAM and were cultured for one week. The resulting tumors were excised and cut into 50 mg fragments. These fragments were placed on additional CAMs and treated topically or systemically by intravenous injection the following day with the test agents. […] Each treatment group incorporated at least ten tumors per experiment. Tumors were then excised from the egg and tumor weights were determined for each tumor.
# [1] = system: Human umbilical vein endothelial cells (HUVEC); test: Inhibition of FGF2-stimulated endothelial cell tube formation on Matrigel; type: cell-based; details: FGF2 alone 100 ng/ml, overnight
# Protocol: Differentiation by endothelial cells was examined using a method developed by Grant et al. (Grant et al., In Vitro Cell Dev. Biol., 27A:327-336 (1991), which is hereby incorporated by reference in its entirety). Matrigel® matrix, phenol-red free (commercially available from Becton Dickinson, Bedford, Mass.) was thawed overnight at 4° C. Using cold pipette tips, 3.0 mg/well of Matrigel® matrix was placed in a cold twenty-four-multiwell plate (Falcon). Matrigel® matrix was allowed to polymerize during incubation at 37° C. for 30 minutes.
# Human umbilical vein endothelial cells (HUVEC) were maintained at 37° C. with 5% CO2 and 95% humidity in endothelial cell growth medium with 2% fetal bovine serum (EGM). […]
# Subsequently, the medium was aspirated and cells were fixed and stained using a modified HEMA-3 stain kit. Digital images of micro-titer well sections were collected using a DKC5000 3-CCD color video camera system (Toshiba America, New York, N.Y.) and analyzed using Image-Pro Plus software (Media Cybernetics, Silver Spring, Md.). The area and major axis length of stained cells having a tubular morphology was measured on the Matrigel® matrix surface (Becton Dickinson, Bedford, Pa.) counted from 5 images/well.
# [2] = system: chick chorioallantoic membrane (CAM); test: FGF2-induced neovascularization on the chick chorioallantoic membrane (CAM); type: in vivo; details: FGF2 alone (filter disk, 1 μg/mL)
# Protocol: In vivo neovascularization was examined by the method previously described by Auerbach et al. (Auerbach et al., J. Dev. Biol., 41:391-394 (1974), which is hereby incorporated by reference in its entirety). Ten-day old embryos were purchased from Spafas, Inc. (Preston, Conn.) and were incubated at 37° C. with 55% relative humidity. In the dark with the help of a candling lamp, a small hole was punctured in the shell concealing the air sac with a hypodermic needle. A second hole was punctured in the shell on the broadside of the egg directly over an avascular portion of the embryonic membrane, as observed during candling. A false air sac was created beneath the second hole by the application of negative pressure to the first hole, which caused the chorioallantoic membrane (CAM) to separate from the shell. […]
# CAM tissue directly beneath FGF2-saturated filter disk was resected from embryos treated 48 hours prior with test compound or control. […] Digital images of CAM sections adjacent to filters were collected using a 3-CCD color video camera system (Toshiba America, New York, N.Y.) and analyzed using Image-Pro Plus software (Media Cybernetics, Silver Spring, Md.). Table 4 contains the number of vessel branch points contained in a circular region equal to the area of a filter disk counted for each section.
Substance,Mean tumor weight (mg) ± SEM (Colon tumor),"Cell Tube Formation (area, mm^2) [1]","Cell Tube Formation (length, mm) [1]",Average # of Branch Points [2]
r-TFPI: r-tissue factor pathway inhibitor,38 ± 8 mg,,,
"FGF2: recombinant human fibroblast growth factor basic, angiogenic stimulus",,2.50 ± 0.28 mm^2,79.83 ± 8.66 mm,264 + 18

# Source: patent US8071569B2, “Oxidized heparin fractions and their use in inhibiting angiogenesis” (priority 2002, dated 2011)
